Each structure is given as a SMILES string.

Test [1] deals with Prostaglandin E2 (=PGE2) production by the human skin fibroblasts. The test can be described thus: PGE2 levels in PMA-induced human dermal fibroblasts (anti-inflammatory cell assay). The class given is cell-based. The settings on record: primary human foreskin fibroblasts, FIGS. 1 and 2; for concentration dependence of anti-inflammatory effect as measured by a reduction in PGE2: increasing concentrations; for anti-inflammatory effect (PGE2 level versus control+veh+PMA): three concentration levels. On the procedure: It is emphasized that the anti-inflammatory effects were determined by in vitro tests wherein the Prostaglandin E2 (=PGE2) production by the human skin fibroblasts is measured after being induced by the inflammatory modulus phorbyl myristyl acetate (PMA). A reduction of the levels of PGE2 is indicative of the anti-inflammatory effect.
Fibroblast cell assay: Primary human foreskin fibroblasts at passage 2 (P2) were seeded into 96-well plates at 35000 cells/well and maintained for 24 hours in an atmosphere of 5% carbon dioxide in Dulbeccos Modified Eagles Medium (DMEM) supplemented with 10% foetal calf serum.
The lignan-compound (SECO or MAT) was added to fresh cell media (DMEM, supplemented with 10% foetal calf serum) in 100% ethanol (final concentration 1%) in triplicate and incubated for a further 24 hours. Phorbal myristate acetate (PMA) in ethanol/cell media ([…]) was added to the cells treated with the lignan compound (SECO) and the cells incubated for a further 24 hours. PMA represents an external stressor, which induces oxidative stress and inflammatory responses in cells. The fibroblasts/media were then analysed as described below immediately, or, snap frozen in liquid nitrogen and stored at −70° C. for future analysis. The cells were then counted to ensure no effect on cell number.
Different concentrations of SECO or MAT were used in the above method to study the effect of concentration. A series of control experiments were also carried out according to the above method; Control+veh+PMA (positive control), Control+veh (negative control) and control (standard control).
Prostaglandin E2 (PGE2) assay volumes of 50 μl culture medium were taken for PGE2 assay from the above samples after gently shaking the culture plate. PGE2 levels in the medium were determined with a Biotrak PGE2 immunoassay kit (Amersham, UK). The assay is based on the competition between unlabelled PGE2 in the sample and a fixed quantity of horseradish peroxidase labelled PGE2 for a limited amount of fixed PGE2 specific antibody. Concentrations of unlabelled sample PGE2 are determined according to a standard curve, which was obtained at the same time.

Test [2] has as its system Procollagen-I and Decorin production by the human dermal fibroblasts. The test can be described thus: Procollagen-I and decorin synthesis in human dermal fibroblasts (anti-ageing cell assay, dot blot). The class given is cell-based. The following applies: primary human foreskin fibroblasts, serum free DMEM, 24 hours, different concentration levels, FIGS. 3 and 4. On the procedure: It is emphasized that the anti-ageing effects were determined by in vitro tests wherein the Procollagen-I and Decorin production by the human dermal fibroblasts is measured after being induced by the anti-ageing stimulus. An increase in the levels of Procollagen-I is indicative of the anti-ageing effect.
Preparation of Dermal Fibroblast Conditioned Medium: Primary human foreskin fibroblasts at passage 2 (P2) were seeded into 12-well plates at 40000 cells/well and maintained for 24 hours in an atmosphere of 5% carbon dioxide and 4% oxygen in Dulbeccos Modified Eagles Medium (DMEM) supplemented with 10% foetal calf serum. After this time the cells were washed with serum free DMEM and then incubated in fresh serum free DMEM for a further 60 hours. The fibroblast monolayers were then washed again with serum free DMEM.
The test reagent (MAT and SECO at different concentration levels) and vehicle control (1% ethanol final concentration) were added to the cells in triplicate in a final volume of 0.4 ml/well fresh serum free DMEM and incubated for a further 24 hours. This fibroblast conditioned medium was either analysed immediately, or, snap frozen in liquid nitrogen and stored at −70° C. for future analysis. The cells were then counted and data from the dot-blot analysis subsequently standardised to cell number. […]

On to `COc1cc(C[C@@H](CO)[C@H](CO)Cc2ccc(O)c(OC)c2)ccc1O` [SECO, secoisolariciresinol], for which, in test [1], the “concentration dependence of anti-inflammatory effect as measured by a reduction in PGE2” value is given as “produced increasing anti-inflammatory effects” and the “anti-inflammatory effect (PGE2 level versus control+veh+PMA)” value is on record as “effective in producing an anti-inflammatory effect in human cells”. In test [2], the “anti-ageing effects (procollagen-I and decorin synthesis relative to vehicle treated control of 100 arbitrary units)” value is “showed increased anti-ageing effects in human cells compared to a control sample”.

Turning to `COc1cc(C[C@H]2COC(=O)[C@@H]2Cc2ccc(O)c(OC)c2)ccc1O` [MAT, matairesinol], in test [1], the “concentration dependence of anti-inflammatory effect as measured by a reduction in PGE2” value is recorded as “produced increasing anti-inflammatory effects” and the “anti-inflammatory effect (PGE2 level versus control+veh+PMA)” value was “effective in producing an anti-inflammatory effect in human cells”. Besides, the “anti-ageing effects (procollagen-I and decorin synthesis relative to vehicle treated control of 100 arbitrary units)” value in test [2] is reported as “showed increased anti-ageing effects in human cells compared to a control sample”.

For the origin of these results see US20040156881A1, “Use of lignans in foods” (priority 2001, published 2004).
